Results published in patent publication US20220273619A1, “PHARMACEUTICAL FORMULATIONS COMPRISING SODIUM PALMITOYL-L-PROLYL-L-PROLYLGLYCYL-L-TYROSINATE AND METHODS FOR PREPARING THE SAME” (Bridge Blctherapeutics, lnc., priority 2019, published 2022).
≈ marks a conversion by molar mass, not a printed value. Where a name gives a salt, the structure may show the parent alone. Where a SMILES comes first, the peptide text is derived from it. The star is where a group is joined. Palmitoyl = CCCCCCCCCCCCCCCC(=O)*

Columns and labels:
[1] = Solubility in water of other salts of Compound II; type: physicochemical
[2] = Stability test: impurities by HPLC after storage; type: physicochemical
Method: After the dosage forms prepared in the present invention were stored for a period of time in a long-term storage stability condition (25° C./60% RH) or an accelerated stability condition (40° C./75% RH), the content of individual impurities or total impurities was measured. The impurities were measured using a validated HPLC analysis method. The specific conditions are as follows.

[3] = Solubility at room temperature, manual dilution combined with visual observation; type: physicochemical; conditions: for solubility: room temperature
Method: The solubility was tested in various solvents for palmitoyl-L-prolyl-L-prolyl-glycyl-L-tyrosine (Compound II). The solubility test was performed by manual dilution combined with visual observation.
The solubility was tested at room temperature in various solvents for Compound I. In addition, the solubility test was performed by manual dilution combined with visual observation. Specifically, 2 mg of Compound I was added to a 1.5 mL HPLC vial and continuously stirred at ambient temperature while the solvent was gradually added.

[4] = Solubility by shaking at 25° C., filtration and HPLC of the filtrate; type: physicochemical
Method: The solubility was measured by the following method. An appropriate amount of sample was placed in a 1.5 mL HPLC vial, and then 1.0 mL of solvent was added. The HPLC vial was shaken at 25° C. at a speed of 700 rpm, then the slurry was filtered, and the filtrate was analyzed by HPLC. In this case, the limit of quantification (LOQ) was 2 μg/mL.
In order to increase the solubility of palmitoyl-L-prolyl-L-prolyl-glycyl-L-tyrosine (Compound II) in water, the amorphous solid dispersions of Compound II were prepared, and then the solubility was measured.
In order to increase the solubility of palmitoyl-L-prolyl-L-prolyl-glycyl-L-tyrosine (Compound II) in water, a surfactant such as sodium lauryl sulfate (SLS) was added, and the solubility was measured.

interleukin-6 = conditions: cited from earlier work
NF-κB = conditions: cited from earlier work
[5] = Solid-form observation of the disodium salt (hygroscopicity); type: physicochemical; conditions: could not be maintained in the form of the solid powder
Method: In the method for preparing Compound I, an excess of NaOH (for example; 4 equivalents) was added to prepare disodium palmitoyl-L-prolyl-L-prolyl-glycyl-L-tyrosinate.

[6] = 1,4-dioxane, 1,4-dioxane, read-out: Solubility
[7] = 1-butanol, read-out: Solubility
[8] = 2-methyl tetrahydrofuran, read-out: Solubility
[9] = ACN-H2O (1:1), read-out: Solubility
[10] = N-methyl pyrrolidone, read-out: Solubility
[11] = THF-H2O (1:1), read-out: Solubility
[12] = acetone-H2O (1:2), read-out: Solubility
[13] = acetonitrile, read-out: Solubility
[14] = cyclohexane, read-out: Solubility
[15] = ethanol-H2O (1:1), read-out: Solubility
[16] = ethanol-H2O (3:1), read-out: Solubility
[17] = ethyl acetate, read-out: Solubility
[18] = isopropyl acetate, read-out: Solubility
[19] = isopropyl alcohol, read-out: Solubility
[20] = methanol-H2O (1:1), read-out: Solubility
[21] = methanol-H2O (3:1), read-out: Solubility
[22] = methyl ethyl ketone, read-out: Solubility
[23] = methyl isobutyl ketone, read-out: Solubility
[24] = methyl t-butyl ether, read-out: Solubility
[25] = tetrahydrofuran, read-out: Solubility
[26] = SGF (pH = 1.2), 25° C., LOQ = 2 μg/mL

CCCCCCCCCCCCCCCC(=O)N1CCC[C@H]1C(=O)N1CCC[C@H]1C(=O)NCC(=O)N[C@@H](Cc1ccc(O)cc1)C(=O)O [Arginine Salt] (Palmitoyl-PPGY-OH)
solubility [1]: <10000 µg/mL

CCCCCCCCCCCCCCCC(=O)N1CCC[C@H]1C(=O)N1CCC[C@H]1C(=O)NCC(=O)N[C@@H](Cc1ccc(O)cc1)C(=O)[O-].[Na+] [Compound I, sodium palmitoyl-L-prolyl-L-prolyl-glycyl-L-tyrosinate] (Palmitoyl-PPGY-OH)
Stability of Compound I ([2]; in capsules of Table 26, 1 month, accelerated stability condition 40° C./75% RH): stable
Stability of Compound I ([2]; in capsules of Table 31, 1 month, accelerated stability condition 40° C./75% RH): stable
Stability of Compound I ([2]; in capsules of Table 36, 6 months, long-term storage stability condition 25° C./60% RH): stable
Stability of Compound I ([2]; in capsules of Table 37, 6 months, accelerated stability condition 40° C./75% RH): stable
solubility [3, 6]: 33300 to 50000 µg/mL
solubility [3, 7]: 50000 to 100000 µg/mL
solubility [3, 8]: > 100000 µg/mL
solubility [3, 9]: 50000 to 100000 µg/mL
solubility ([3]; DMF, read-out: Solubility): 20000 to 33300 µg/mL
solubility ([3]; DMSO, read-out: Solubility): 50000 to 100000 µg/mL
solubility [3, 10]: 50000 to 100000 µg/mL
solubility [3, 11]: 50000 to 100000 µg/mL
solubility [3, 12]: 50000 to 100000 µg/mL
solubility ([3]; acetone, read-out: Solubility): < 1000 µg/mL
solubility [3, 13]: < 1000 µg/mL
solubility [3, 14]: < 1000 µg/mL
solubility [3, 15]: 50000 to 100000 µg/mL
solubility [3, 16]: 50000 to 100000 µg/mL
solubility ([3]; ethanol, read-out: Solubility): 50000 to 100000 µg/mL
solubility [3, 17]: < 1000 µg/mL
solubility ([3]; heptane, read-out: Solubility): < 1000 µg/mL
solubility [3, 18]: < 1000 µg/mL
solubility [3, 19]: 50000 to 100000 µg/mL
solubility [3, 20]: > 100000 µg/mL
solubility [3, 21]: > 100000 µg/mL
solubility ([3]; methanol, read-out: Solubility): > 100000 µg/mL
solubility [3, 22]: 3300 to 5000 µg/mL
solubility [3, 23]: 1200 to 1400 µg/mL
solubility [3, 24]: < 1000 µg/mL
solubility [3, 25]: > 100000 µg/mL
solubility ([3]; toluene, read-out: Solubility): 50000 to 100000 µg/mL
water solubility of Compound I compared to that of Compound II in an acid form ([3]; water): tens of thousands of times or more
solubility ([3]; water, read-out: Solubility): ≥ 100000 µg/mL

CCCCCCCCCCCCCCCC(=O)N1CCC[C@H]1C(=O)N1CCC[C@H]1C(=O)NCC(=O)N[C@@H](Cc1ccc(O)cc1)C(=O)O [Compound II, Palmitoyl-L-prolyl-L-prolyl-glycyl-L-tyrosine] (Palmitoyl-PPGY-OH)
solubility ([4]; 1% Poloxamer 188 added, SGF (pH = 1.2), LOQ = 2 μg/mL): <LOQ
solubility ([4]; 1% Poloxamer 188 added, Water, LOQ = 2 μg/mL): <LOQ
solubility ([4]; 5% Poloxamer 188 added, SGF (pH = 1.2), LOQ = 2 μg/mL): <LOQ
solubility ([4]; 5% Poloxamer 188 added, Water, LOQ = 2 μg/mL): <LOQ
solubility ([4]; FaSSIF with 1% Poloxamer 188, 1% Poloxamer 188 added, FaSSIF, LOQ = 2 μg/mL, read-out: Solubility): 10 µg/mL (≈ 14.9 µM)
solubility ([4]; FaSSIF with 1% SLS, 1% SLS added, FaSSIF, LOQ = 2 μg/mL, read-out: Solubility): 1990 µg/mL (≈ 2970 µM)
solubility ([4]; FaSSIF with 5% Poloxamer 188, 5% Poloxamer 188 added, FaSSIF, LOQ = 2 μg/mL, read-out: Solubility): 10 µg/mL (≈ 14.9 µM)
solubility ([4]; FaSSIF with 5% SLS, 5% SLS added, FaSSIF, LOQ = 2 μg/mL, read-out: Solubility): 5090 µg/mL (≈ 7590 µM)
solubility ([4]; FaSSIF, 25° C., LOQ = 2 μg/mL): 10 µg/mL (≈ 14.9 µM)
solubility [4, 26]: <LOQ
solubility ([4]; SGF with 1% SLS, pH 1.2, 1% SLS added, SGF (pH = 1.2), LOQ = 2 μg/mL, read-out: Solubility): 90 µg/mL (≈ 134 µM)
solubility ([4]; SGF with 5% SLS, pH 1.2, 5% SLS added, SGF (pH = 1.2), LOQ = 2 μg/mL, read-out: Solubility): 380 µg/mL (≈ 566 µM)
solubility ([4]; Water, 25° C., LOQ = 2 μg/mL): <LOQ
solubility ([4]; water with 1% SLS, 1% SLS added, Water, LOQ = 2 μg/mL, read-out: Solubility): 470 µg/mL (≈ 701 µM)
solubility ([4]; water with 5% SLS, 5% SLS added, Water, LOQ = 2 μg/mL, read-out: Solubility): 1920 µg/mL (≈ 2860 µM)
solubility ([4]; water, lower than the limit of quantification (LOQ), read-out: water solubility): < 2 µg/mL
solubility [3, 6]: < 1000 µg/mL
solubility [3, 7]: < 1000 µg/mL
solubility [3, 8]: < 1000 µg/mL
solubility [3, 9]: < 1000 µg/mL
solubility ([3]; DMF, read-out: Solubility): 1000 to 5000 µg/mL
solubility ([3]; DMSO, read-out: Solubility): 10000 to 25000 µg/mL
solubility [3, 10]: 1000 to 5000 µg/mL
solubility [3, 11]: 1000 to 5000 µg/mL
solubility ([3]; Water): <1000 µg/mL
solubility [3, 12]: < 1000 µg/mL
solubility ([3]; acetone, read-out: Solubility): < 1000 µg/mL
solubility [3, 13]: < 1000 µg/mL
solubility [3, 14]: < 1000 µg/mL
solubility [3, 15]: < 1000 µg/mL
solubility [3, 16]: < 1000 µg/mL
solubility ([3]; ethanol, read-out: Solubility): < 1000 µg/mL
solubility [3, 17]: < 1000 µg/mL
solubility ([3]; heptane, read-out: Solubility): < 1000 µg/mL
solubility [3, 18]: < 1000 µg/mL
solubility [3, 19]: < 1000 µg/mL
solubility [3, 20]: < 1000 µg/mL
solubility [3, 21]: < 1000 µg/mL
solubility ([3]; methanol, read-out: Solubility): 1000 to 5000 µg/mL
solubility [3, 22]: < 1000 µg/mL
solubility [3, 23]: < 1000 µg/mL
solubility [3, 24]: < 1000 µg/mL
solubility [3, 25]: < 1000 µg/mL
solubility ([3]; toluene, read-out: Solubility): < 1000 µg/mL
solubility ([3]; water, read-out: Solubility): < 1000 µg/mL
inhibiting the expression of interleukin-6 (interleukin-6): excellent effect
inhibiting the activity of NF-κB (NF-κB): excellent effect

CCCCCCCCCCCCCCCC(=O)N1CCC[C@H]1C(=O)N1CCC[C@H]1C(=O)NCC(=O)N[C@@H](Cc1ccc([O-])cc1)C(=O)[O-].[Na+].[Na+] [Disodium Palmitoyl-L-prolyl-L-prolyl-glycyl-L-tyrosinate] (Palmitoyl-PPGY-OH)
Hygroscopicity [5]: very hygroscopic

CCCCCCCCCCCCCCCC(=O)N1CCC[C@H]1C(=O)N1CCC[C@H]1C(=O)NCC(=O)N[C@@H](Cc1ccc(O)cc1)C(=O)O [Meglumine Salt] (Palmitoyl-PPGY-OH)
solubility ([1]; read-out: Solubility): < 10000 µg/mL

CCCCCCCCCCCCCCCC(=O)N1CCC[C@H]1C(=O)N1CCC[C@H]1C(=O)NCC(=O)N[C@@H](Cc1ccc(O)cc1)C(=O)O [Micronized Compound II] (Palmitoyl-PPGY-OH)
solubility ([4]; FaSSIF, 25° C., LOQ = 2 μg/mL): 50 µg/mL (≈ 74.5 µM)
solubility [4, 26]: <LOQ
solubility ([4]; Water, 25° C., LOQ = 2 μg/mL): <LOQ
